Consider four compounds from US10301203B2, “Chloroperoxidase-catalyzed degradation of pharmaceutical pollutants in wastewater” (THE FLORIDA INTERNATIONAL UNIVERSITY BOARD OF TRUSTEES, priority 2017, dated 2019).

Converted amounts (≈) assume the structure as drawn. Where only a bound is given, the exact number is not on record here.

The nature of data set [1]: MTT assay, cell viability. It is filed as cell-based. The note with it: human, MDA-MB-231 breast cancer cells, read-out: MTT incorporation (cell viability) as percentage of control. The protocol: After incubation, the medium was removed and formazan crystals were dissolved in detergent reagent following the manufacturer's instructions (ATCC). Optical density for each condition was determined at 570 nm. MTT incorporation was expressed as percentage of the control in the absence of compounds.
Background: Tetrazolium assays rely on reduction of a dye to a coloured formazan, in cell work by metabolically active cells.

The target in data set [2] is T1, chloroperoxidase (CPO) (Leptoxyphium fumago, UniProt P04963).
T1 sequence (P04963 21-319 limits assumed): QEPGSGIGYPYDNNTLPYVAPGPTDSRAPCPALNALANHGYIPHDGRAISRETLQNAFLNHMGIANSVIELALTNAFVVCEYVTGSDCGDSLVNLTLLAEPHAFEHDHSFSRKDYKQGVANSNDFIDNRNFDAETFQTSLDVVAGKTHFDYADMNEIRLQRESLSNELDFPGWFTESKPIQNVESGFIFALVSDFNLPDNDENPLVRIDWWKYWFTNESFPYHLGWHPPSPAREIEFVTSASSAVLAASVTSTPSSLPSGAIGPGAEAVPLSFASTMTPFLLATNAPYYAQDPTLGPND
Kind of data set: CPO-catalyzed degradation in CPO-H2O2-Cl- system, LC-Q-TOF-MS. It is filed as biochemical, Caldariomyces fumago. Set-up: The isolation of CPO proposed in this study was a modification of the protocol reported by Morris and Hager (1966); made in house; host or cells: native producer.
Procedure: The mixture was centrifuged at 3,000 g in Centriprep® centrifugal filter unit with a 30,000 Dalton cut-off membrane (EMD Millipore, Billerica, Mass., USA). The yielded product was collected after being centrifuged for 1 min. Ethyl acetate was used to extract the filtrate while shaking vigorously, and the supernatant was evaporated to dryness using nitrogen gas. The dried metabolites were dissolved in H2O/methanol (95:5 v/v) to achieve a final concentration of 1 mg/L (ppm). Each sample was either stored in a freezer at −20° C. or immediately run in the LC-Q-TOF-MS mass spectrometer system.
Chromatographic separation and identification of metabolites was performed using the Agilent 1290 Infinity UPLC system coupled with Agilent 6530 Q-TOF mass spectrometer. The Agilent MassHunter Data Acquisition Software (rev. B0.06.00) was used to control the UPLC and the mass spectrometer. Mass Hunter Qualitative Data Analysis Software (Rev. B.07.00) was used for data mining and identification. An Agilent ZORBAX Eclipse plus C18 Rapid Resolution High Definition (RRHD) column (100 mm×1.8 μm) was applied, with the column temperature set at 30° C. via a thermostatted column compartment (TCC). An infinity 1290 automatic injector was used to inject 1 μL of the sample to the column. […]

The target of data set [3] is T1, chloroperoxidase (CPO). The data set is described as follows: CPO-catalyzed degradation of CBZ, UV-Vis at 285 nm. It is filed as biochemical, Caldariomyces fumago. The note with it: 20 mM Cl-, 0.07 mM CBZ, 0.07 mM H2O2, 2.5 nM CPO. Set-up: The isolation of CPO proposed in this study was a modification of the protocol reported by Morris and Hager (1966); made in house; host or cells: native producer. Here is the method: A VARIAN UV-Vis spectrophotometer (Cary 200 Bio) was used to collect the UV spectra of the degradation products. The drug solution was scanned by dissolving 0.07 mM CBZ in 100 mM KH2PO4 buffer with 20 mM KCl at pH 2.75. The same solution was monitored after being mixed with 0.35 mM H2O2. UV spectra were recorded after the addition of 5 nM CPO for 1 min., 2.5 min., and 4 min.
The effect of the concentration of chloride was investigated. Degradation was carried out in 100 mM phosphate buffer at pH 3.0 with 0.07 mM CBZ and 0.07 mM H2O2. Concentration of chloride was increased from 0 to 20 mM. 285 nm wavelength was monitored immediately after 2.5 nM CPO was added.
The degradation rate at pH range of 2.0 to 5.0 was investigated to probe the effect of pH on the CPO-catalyzed reaction. The reaction was carried out in 100 mM phosphate buffer with 20 mM KCl, 0.07 mM CBZ, and 0.07 mM H2O2. […] 285 nm wavelength was monitored immediately after the addition of 2.5 nM CPO. The calculated time was 0.2 to 0.4 min.
The degradation rate of CBZ was determined by different concentrations of H2O2, ranging from 0.07 to 0.71 mM, in 100 mM phosphate buffer with 20 mM KCl and 0.07 mM CBZ at pH 3.0. A wavelength of 285 nm was monitored immediately after the addition of 5 nM CPO. The degradation rate was calculated at 0.1 to 0.3 min.
The rate was calculated by monitoring absorbance at 285 nm from 0.1 to 0.2 min. […]

The next data set concerns C. pyrenoidosa. Kind of data set: Growth-inhibitory (eco-toxicity) test on freshwater green alga. The note with it: Auxenochlorella pyrenoidosa, 72 h; at the end of CPO-catalyzed degradation (product mixture of the named drug). It is filed as cell-based, Chlorella pyrenoidosa. The protocol: Freshwater unicellular green alga, C. pyrenoidosa (provided by the Institute of Wuhan Hydrobiology, Chinese Academic of Science), was cultivated in nutrient media of blue green medium (BG11) at 298K and illuminated with cool-white fluorescent lights at a continuous light intensity of 2000 Lx. For cell experiments, C. pyrenoidosa was exposed, during its log growth phase, to the toxicant at five different concentrations (maintain final concentration ranging from 0.01 to 0.36 mg/L) for 3-4 days at 298K. The concentration of the alga was determined by monitoring the change of absorption at 680 nm (Ma et al., 2006). The toxicity tests for each drug concentration were conducted in triplicate.
The growth inhibition rate for each sample was calculated.
However, toxicity evaluation about the products from diclofenac and naproxen are not readily available. Biological assays offer a direct measure to evaluate the magnitude of the potential health risk of chemicals. Therefore, a growth-inhibitory test was carried out using C. Pyrenoidosa.

The target of data set [4] is T1, chloroperoxidase (CPO). The data set is described as follows: CPO-catalyzed degradation of diclofenac and naproxen, HPLC. Format: biochemical, C. fumago. The following applies: for CPO concentration for complete degradation: 15 μmol/L drug, 0.1 mmol/L H2O2; for fraction of drug degraded within 1 min / time to complete degradation: optimum reaction condition; for pH of maximum degradation efficiency: pH range 2-6. Set-up: CPO was isolated from the growth medium of C. fumago; made in house; host or cells: Caldariomyces fumago growth medium (native producer). The protocol:
Enzymatic degradation of both drugs was carried out in 0.1 mol·L-1 phosphate buffer in a centrifugal tube with a total volume of 3.0 mL containing CPO (0.25-0.23 nmol·L-1), 20 mmol·L-1 KCl, and drugs (15 μmol·L^−1) at pH 2˜6 at 298K. The reaction was started by adding H2O2 (0.015-0.3 mmol·L^−1) in the absence of light under magnetic stirring and was continued for 20 min. The supernatant of the reaction mixture was extracted 3 times using ethyl acetate. The combined organic extract was concentrated by rotary evaporation (0.09 MPa, 308K) to remove the solvent. The extracts were then dissolved in acetonitrile and methanol, respectively, for HPLC (LC-20AT, Shimadzu) analysis. The mobile phase consisted of 80:20 (v/v) acetonitrile and water for diclofenac and 90:10 (v/v) methanol and water for naproxen, and the flow rate was 0.5 ml·min^−1. The detector was set at 274 nm and 235 nm for diclofenac and naproxen, respectively. The quantitative analysis of the target compounds was based on the standard curve (correlation coefficients were >0.999). The effect of reaction parameters (pH, concentration of enzyme/H2O2, and reaction time) on degradation efficiency was investigated and optimized.
All experiments were triplicated and data reported were mean values of three independent measurements.

For orientation: EC50 means the concentration that produces a half-maximal response.

With `NC(=O)N1c2ccccc2C=Cc2ccccc21` [CBZ, Carbamazepine], in data set [1], the viability at 24 h, 0.0425 μg/ml was 80%; the viability at 24 h, 0.85 μg/ml amounted to 60%; the viability at 24 h, 1.7 μg/ml stood at 45%. Besides, at chloroperoxidase (CPO) [2] (10.59 μM (2.5 mg/L) CBZ, 107.19 μM H2O2, 2.9 nM CPO, 10 min), the degradation efficiency turned out to be 100%. Besides, the “optimum pH for degradation” value on chloroperoxidase (CPO) [3] was 3.0.
For the compound `Cc1cc(C)nc(NS(=O)(=O)c2ccc(N)cc2)n1` [SMZ, Sulfamethazine], in data set [1], the viability at 24 h, 0.0425 μg/ml is 80%; the viability at 24 h, 0.85 μg/ml turned out to be 50%; the viability at 24 h, 1.7 μg/ml came to 40%. The degradation efficiency at chloroperoxidase (CPO) [2] (62.45 μM SMZ, 1.3 nM CPO, H2O2 added stepwise, 30 min) is listed as 100%.
For `O=C([O-])Cc1ccccc1Nc1c(Cl)cccc1Cl.[Na+]` [diclofenac, 2-[(2,6-dichlorophenyl)amino]benzeneacetic acid; sodium salt], the EC50 in the data set with C. pyrenoidosa amounted to 0.25 µg/mL. For the same compound, on chloroperoxidase (CPO) [4], the “CPO concentration for complete degradation” value is “above 5.0 nmol·L^−1”, the “fraction of drug degraded within 1 min” value is “about 70%”, the “time to complete degradation” value is 9 min and the “pH of maximum degradation efficiency” value is on record as roughly 3.2.
Turning to `COc1ccc2cc(C(C)C(=O)O)ccc2c1` (stereo not shown) [naproxen, 2-(6-methoxynaphthalen-2-yl)propionic acid], the EC50 with C. pyrenoidosa stood at 0.33 µg/mL (≈ 1.43 µM). For the same compound, at chloroperoxidase (CPO) [4], the “CPO concentration for complete degradation” value was greater than 20.0 nmol/L, the “fraction of drug degraded within 1 min” value is recorded as roughly 75%, the “time to complete degradation” value was determined as 7 min and the “pH of maximum degradation efficiency” value is reported as roughly 3.2.
